Results taken from patent US20250170096A1, “OXPHOS INHIBITORS FOR USE IN TREATING CANCER” (ImmunoMet Therapeutics, Inc., priority 2022, published 2025).

Legend:
OXPHOS = assay: Pre- and post-treatment biopsies of patients receiving cancer therapies; assay type: in vivo; details: for Effect of therapy on OXPHOS, post-treatment versus pre-treatment biopsies: across cancers, named as the most significant therapies
Text: Biopsies were collected from subjects undergoing treatment for cancer (FIG. 1A).

[1] = system: Patient derived xenograft cells; assay: Growth of patient derived xenograft cells treated in vitro; assay type: cell-based; details: in vitro exposure of patient-derived xenograft cells to gemcitabine; FIG. 2
Experimental: Patient derived xenograft cells were treated with the compound of Formula 1, Gemcitabine (Gem), or the compound of Formula 1 and gemcitabine together (FIG. 2). Cells treated with both Gem and Formula 1 grew slower than cells treated with Formula 1 or Gem alone.

C[C@]12CC[C@@H]3c4ccc(O)cc4C[C@@H](CCCCCCCCC[S+]([O-])CCCC(F)(F)C(F)(F)F)[C@H]3[C@@H]1CC[C@@H]2O (some centres unmarked) [fulvestrant]
Effect of therapy on OXPHOS, post-treatment versus pre-treatment biopsies (OXPHOS): increase OXPHOS | OXPHOS following treatment (OXPHOS; breast cancer, FIG. 1E): increase in OXPHOS

COc1cccc2c1C(=O)c1c(O)c3c(c(O)c1C2=O)C[C@@](O)(C(=O)CO)C[C@@H]3O[C@H]1C[C@H](N)[C@H](O)[C@H](C)O1 [doxorubicin]
Effect of therapy on OXPHOS, post-treatment versus pre-treatment biopsies (OXPHOS): increase OXPHOS | OXPHOS following treatment (OXPHOS; bladder cancer, breast cancer, sarcoma, FIG. 1H): increase in OXPHOS

N.N.O=C([O-])C1(C(=O)[O-])CCC1.[Pt+2] [carboplatin]
Effect of therapy on OXPHOS, post-treatment versus pre-treatment biopsies (OXPHOS): increase OXPHOS | OXPHOS following treatment (OXPHOS; breast cancer, endometrial cancer, NSCLC, ovarian cancer, FIG. 1G): increase in OXPHOS

O=P1(N(CCCl)CCCl)NCCCO1 (centres unmarked) [cyclophosphamide]
Effect of therapy on OXPHOS, post-treatment versus pre-treatment biopsies (OXPHOS): increase OXPHOS | OXPHOS following treatment (OXPHOS; breast cancer and sarcoma, FIG. 1F): increase in OXPHOS

CC(=O)O[C@H]1C(=O)[C@@]2(C)[C@H]([C@H](OC(=O)c3ccccc3)[C@]3(O)C[C@H](OC(=O)[C@H](O)[C@@H](NC(=O)c4ccccc4)c4ccccc4)C(C)=C1C3(C)C)[C@]1(OC(C)=O)CO[C@@H]1C[C@@H]2O [paclitaxel]
Effect of therapy on OXPHOS, post-treatment versus pre-treatment biopsies (OXPHOS): increase OXPHOS | OXPHOS following treatment (OXPHOS; breast cancer, endometrial cancer, NSCLC, ovarian cancer, FIG. 1I): increase in OXPHOS

N#Cc1ccc(C(c2ccc(C#N)cc2)n2cncn2)cc1 [letrozole]
Effect of therapy on OXPHOS, post-treatment versus pre-treatment biopsies (OXPHOS): increase OXPHOS | OXPHOS following treatment (OXPHOS; breast cancer, FIG. 1E): increase in OXPHOS

CCNC(=O)[C@@H]1CCCN1C(=O)[C@H](CCCNC(=N)N)NC(=O)[C@H](CC(C)C)NC(=O)[C@@H](CC(C)C)NC(=O)[C@H](Cc1ccc(O)cc1)NC(=O)[C@H](CO)NC(=O)[C@H](Cc1c[nH]c2ccccc12)NC(=O)[C@H](Cc1c[nH]cn1)NC(=O)[C@@H]1CCC(=O)N1 [leuprolide]
Effect of therapy on OXPHOS, post-treatment versus pre-treatment biopsies (OXPHOS): increase OXPHOS | OXPHOS following treatment (OXPHOS; breast cancer and prostate cancer, FIG. 1C): increase in OXPHOS

Nc1ccn([C@@H]2O[C@H](CO)[C@@H](O)C2(F)F)c(=O)n1 [gemcitabine, Gemcitabine]
Sensitization of tumor cells to the compound of Formula 1 [1]: sensitizes tumor cells to the compound of Formula 1

CNC(=O)c1ccc(N2C(=S)N(c3ccc(C#N)c(C(F)(F)F)c3)C(=O)C2(C)C)cc1F [enzalutamide]
Effect of therapy on OXPHOS, post-treatment versus pre-treatment biopsies (OXPHOS): increase OXPHOS | OXPHOS following treatment (OXPHOS; prostate cancer, FIG. 1D): increase in OXPHOS
